Patent US8278345B2, “Inhibitors of glutaminyl cyclase” (Probiodrug AG, priority 2006, dated 2012)
Where two headings read alike, the source gives them in different places.

Assays:
hQC = hQC (Homo sapiens, UniProt Q16769); experiment: Inhibitor assay for glutaminyl cyclase activity (fluorometric, H-Gln-βNA / H-Gln-AMC); type: biochemical
Procedure, shortened: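 Ki values came from fitting progress curves to a competitive inhibition model; rapid screens used 4 mM inhibitor with substrate at KM. QC activity was read at 30 °C via auxiliary pyroglutamyl aminopeptidase releasing βNA (0.2 mM H-Gln-βNA, 0.2 M Tris pH 8.0, 20 mM EDTA) or AMC (0.05 M Tris pH 8.0, 5 mM EDTA).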

[1] = compound from preparative synthesis, purified, read-out: IC50 hQC
[2] = compound from preparative synthesis, purified

hQC, sequence (Q16769 29-361): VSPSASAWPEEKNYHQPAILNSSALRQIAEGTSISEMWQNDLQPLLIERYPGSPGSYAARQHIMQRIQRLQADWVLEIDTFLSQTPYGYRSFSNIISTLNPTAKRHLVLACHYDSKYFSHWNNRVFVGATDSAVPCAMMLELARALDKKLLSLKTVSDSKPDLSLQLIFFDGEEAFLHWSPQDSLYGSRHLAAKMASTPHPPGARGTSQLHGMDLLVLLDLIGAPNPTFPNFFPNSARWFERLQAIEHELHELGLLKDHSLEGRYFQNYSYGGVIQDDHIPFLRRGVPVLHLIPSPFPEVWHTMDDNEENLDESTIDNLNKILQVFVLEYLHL

Structure (SMILES) | IC50 (hQC; [1]) [nM] | IC50 (hQC; read-out: IC50) [nM] | melting point | Ki (hQC; [2]) [nM]
CCC1C(C(C)=O)=C(O)C(=O)N1c1ccc2[nH]cnc2c1 (stereo not drawn) [Compound 439, 4-Acetyl-1-(1H-benzoimidazol-5-yl)-5-ethyl-3-hydroxy-1,5-dihydro-pyrrol-2-one] | – | 2740 | – | –
CC(C)(C)C(=O)C1=C(O)C(=O)N(c2ccc3[nH]cnc3c2)C1c1c(F)c(F)cc(F)c1F (stereo not drawn) [Compound 442, 1-(1H-Benzoimidazol-5-yl)-4-(2,2-dimethyl-propionyl)-3-hydroxy-5-(2,3,5,6-tetrafluoro-phenyl)-1,5-dihydro-pyrrol-2-one] | – | 8590 | – | –
O=C(C1=C(O)C(=O)N(c2ccc3[nH]cnc3c2)C1c1cccc2cccnc12)C1CC1 (stereo not drawn) [Compound 443, 1-(1H-Benzoimidazol-5-yl)-4-cyclopropanecarbonyl-3-hydroxy-5-quinolin-8-yl-1,5-dihydro-pyrrol-2-one] | – | 4630 | – | –
CC(=O)C1=C(O)C(=O)N(c2ccc3[nH]cnc3c2)C1c1cc[nH]n1 (stereo not drawn) [Compound 444, 4-Acetyl-1-(1H-benzoimidazol-5-yl)-3-hydroxy-5-(1H-pyrazol-3-yl)-1,5-dihydro-pyrrol-2-one] | – | 6880 | – | –
CC(=O)C1=C(O)C(=O)N(c2ccc3[nH]cnc3c2)C1CCC(=O)O (stereo not drawn) [Compound 450, 3-[3-Acetyl-1-(1H-benzoimidazol-5-yl)-4-hydroxy-5-oxo-2,5-dihydro-1H-pyrrol-2-yl]-propionic acid] | – | 9490 | – | –
O=C(C1=C(O)C(=O)N(c2ccc3[nH]cnc3c2)C1c1ccc[nH]1)C1CCCCC1 (stereo not drawn) [Compound 452, 1-(1H-Benzoimidazol-5-yl)-3-cyclohexanecarbonyl-4-hydroxy-1,2-dihydro-1′H-[2,2′]bipyrrolyl-5-one] | – | 5080 | – | –
Cc1ccc2c(C3C(C(=O)C4CC4)=C(O)C(=O)N3c3ccc4[nH]cnc4c3)c[nH]c2c1 (stereo not drawn) [Compound 453, 1-(1H-Benzoimidazol-5-yl)-4-cyclopropanecarbonyl-3-hydroxy-5-(6-methyl-1H-indol-3-yl)-1,5-dihydro-pyrrol-2-one] | – | 7420 | – | –
CCCCCC1=C(O)C(=O)N(c2ccc3[nH]cnc3c2)C1c1ccco1 (stereo not drawn) [Compound 456, 1-(1H-Benzoimidazol-5-yl)-5-furan-2-yl-3-hydroxy-4-pentyl-1,5-dihydro-pyrrol-2-one] | – | 4630 | – | –
CC1=C(O)C(=O)N(c2ccc3[nH]cnc3c2)C1c1ccc(Cl)c(C(F)(F)F)c1 (stereo not drawn) [Compound 460, 1-(1H-Benzoimidazol-5-yl)-5-(4-chloro-3-trifluoromethyl-phenyl)-3-hydroxy-4-methyl-1,5-dihydro-pyrrol-2-one] | – | 9850 | – | –
CC(C)CC(=O)C1=C(O)C(=O)N(c2ccc3[nH]cnc3c2)C1c1c[nH]cn1 (stereo not drawn) [Compound 461, 1-(1H-Benzoimidazol-5-yl)-3-hydroxy-5-(1H-imidazol-4-yl)-4-(3-methyl-butyryl)-1,5-dihydro-pyrrol-2-one] | – | 4000 | – | –
O=C1C(O)=C(F)C(c2ccccc2F)N1c1ccc2[nH]cnc2c1 (stereo not drawn) [Compound 462, 1-(1H-Benzoimidazol-5-yl)-4-fluoro-5-(2-fluoro-phenyl)-3-hydroxy-1,5-dihydro-pyrrol-2-one] | – | 4990 | – | –
CCCCCC(=O)C1=C(O)C(=O)N(c2ccc3[nH]cnc3c2)C1CC (stereo not drawn) [Compound 463, 1-(1H-Benzoimidazol-5-yl)-5-ethyl-4-hexanoyl-3-hydroxy-1,5-dihydro-pyrrol-2-one] | – | 4000 | – | –
O=C1C(O)=C(c2cccc(O)c2)C(c2cc[nH]n2)N1c1ccc2[nH]cnc2c1 (stereo not drawn) [Compound 464, 1-(1H-Benzoimidazol-5-yl)-3-hydroxy-4-(3-hydroxy-phenyl)-5-(1H-pyrazol-3-yl)-1,5-dihydro-pyrrol-2-one] | – | 9850 | – | –
CC(C)(C)C(=O)C1=C(O)C(=O)N(c2ccc3[nH]cnc3c2)C1 [Compound 465, 1-(1H-Benzoimidazol-5-yl)-4-(2,2-dimethyl-propionyl)-3-hydroxy-1,5-dihydro-pyrrol-2-one] | – | 6160 | – | –

Now those with a lower IC50 (hQC; read-out: IC50), led by results:

IC50 (hQC; [1]) [nM] | IC50 (hQC; read-out: IC50) [nM] | melting point | Ki (hQC; [2]) [nM] | Structure (SMILES)
5.8 | 4 | 174 °C | – | CC(=O)C1=C(O)C(=O)N(c2ccc3[nH]cnc3c2)C1c1ccc2cccc(O)c2n1 (stereo not drawn) [Compound 277, 4-Acetyl-1-(1H-benzoimidazol-5-yl)-3-hydroxy-5-(8-hydroxy-quinolin-2-yl)-1,5-dihydro-pyrrol-2-one]
0.7 | 4 | 270 °C (dec.) | – | O=C(C1=C(O)C(=O)N(c2ccc3[nH]cnc3c2)C1c1ccc2nsnc2c1)C1CC1 (stereo not drawn) [Compound 287, 1-(1H-Benzoimidazol-5-yl)-5-benzo[c][1,2,5]thiadiazol-5-yl-4-cyclopropanecarbonyl-3-hydroxy-1,5-dihydro-pyrrol-2-one]
30.3 | 4 | 135 °C | – | CC(=O)C1=C(O)C(=O)N(c2ccc3[nH]cnc3c2)C1c1cccc(F)c1F (stereo not drawn) [Compound 350, 4-Acetyl-1-(1H-benzoimidazol-5-yl)-5-(2,3-difluoro-phenyl)-3-hydroxy-1,5-dihydro-pyrrol-2-one]
1.2 | 4 | 294 °C | – | CCCC(=O)C1=C(O)C(=O)N(c2ccc3[nH]cnc3c2)C1c1ccc(-c2ccccn2)cc1 (stereo not drawn) [Compound 387, 1-(1H-Benzoimidazol-5-yl)-4-butyryl-3-hydroxy-5-(4-pyridin-2-yl-phenyl)-1,5-dihydro-pyrrol-2-one]
28.3 | 4 | 175 °C | – | CC(=O)C1=C(O)C(=O)N(c2ccc3[nH]cnc3c2)C1c1ccc2nonc2c1 (stereo not drawn) [Compound 403, 4-Acetyl-1-(1H-benzoimidazol-5-yl)-5-benzo[c][1,2,5]oxadiazol-5-yl-3-hydroxy-1,5-dihydro-pyrrol-2-one]
– | 580 | – | – | O=C1C(O)=C(c2c[nH]c3ccccc23)C(c2ccc(O)c(Br)c2)N1c1ccc2[nH]cnc2c1 (stereo not drawn) [Compound 438, 1-(1H-Benzoimidazol-5-yl)-5-(3-bromo-4-hydroxy-phenyl)-3-hydroxy-4-(1H-indol-3-yl)-1,5-dihydro-pyrrol-2-one]
– | 850 | – | – | O=C(C1=C(O)C(=O)N(c2ccc3[nH]cnc3c2)C1)C1CCCCC1 [Compound 441, 1-(1H-Benzoimidazol-5-yl)-4-cyclohexanecarbonyl-3-hydroxy-1,5-dihydro-pyrrol-2-one]
– | 2560 | – | – | CC(C)CC(=O)C1=C(O)C(=O)N(c2ccc3[nH]cnc3c2)C1CCC(=O)O (stereo not drawn) [Compound 447, 3-[1-(1H-Benzoimidazol-5-yl)-4-hydroxy-3-(3-methyl-butyryl)-5-oxo-2,5-dihydro-1H-pyrrol-2-yl]-propionic acid]
– | 1750 | – | – | CC1=C(O)C(=O)N(c2ccc3[nH]cnc3c2)C1c1cnc2ccccc2c1 (stereo not drawn) [Compound 448, 1-(1H-Benzoimidazol-5-yl)-3-hydroxy-4-methyl-5-quinolin-3-yl-1,5-dihydro-pyrrol-2-one]
– | 2200 | – | – | CCCC(=O)C1=C(O)C(=O)N(c2ccc3[nH]cnc3c2)C1C1CC1 (stereo not drawn) [Compound 449, 1-(1H-Benzoimidazol-5-yl)-4-butyryl-5-cyclopropyl-3-hydroxy-1,5-dihydro-pyrrol-2-one]
– | 2560 | – | – | O=C(O)c1ccc(C2C(c3c[nH]c4ccccc34)=C(O)C(=O)N2c2ccc3[nH]cnc3c2)o1 (stereo not drawn) [Compound 451, 5-[1-(1H-Benzoimidazol-5-yl)-4-hydroxy-3-(1H-indol-3-yl)-5-oxo-2,5-dihydro-1H-pyrrol-2-yl]-furan-2-carboxylic acid]
– | 2560 | – | – | O=C(C1=C(O)C(=O)N(c2ccc3[nH]cnc3c2)C1c1ccc(Cl)c(C(F)(F)F)c1)C1CCCCC1 (stereo not drawn) [Compound 454, 1-(1H-Benzoimidazol-5-yl)-5-(4-chloro-3-trifluoromethyl-phenyl)-4-cyclohexanecarbonyl-3-hydroxy-1,5-dihydro-pyrrol-2-one]
– | 130 | – | – | CC(C)CC(=O)C1=C(O)C(=O)N(c2ccc3[nH]cnc3c2)C1c1ccc(-c2ccccn2)cc1 (stereo not drawn) [Compound 455, 1-(1H-Benzoimidazol-5-yl)-3-hydroxy-4-(3-methyl-butyryl)-5-(4-pyridin-2-yl-phenyl)-1,5-dihydro-pyrrol-2-one]
– | 4 | – | – | O=C1C(O)=C(c2c[nH]c3ccccc23)C(c2ccc3nsnc3c2)N1c1ccc2[nH]cnc2c1 (stereo not drawn) [Compound 457]
– | 580 | – | – | Cc1cccc(C2C(C(=O)CC(C)C)=C(O)C(=O)N2c2ccc3[nH]cnc3c2)c1 (stereo not drawn) [Compound 458, 1-(1H-Benzoimidazol-5-yl)-3-hydroxy-4-(3-methyl-butyryl)-5-m-tolyl-1,5-dihydro-pyrrol-2-one]
– | 2110 | – | – | Cc1ccc(C2C(C(=O)c3ccc(Cl)cc3)=C(O)C(=O)N2c2ccc3[nH]cnc3c2)o1 (stereo not drawn) [Compound 459, 1-(1H-Benzoimidazol-5-yl)-4-(4-chloro-benzoyl)-3-hydroxy-5-(5-methyl-furan-2-yl)-1,5-dihydro-pyrrol-2-one]
– | 39.8 | – | 3.31 | O=C(C1=C(O)C(=O)N(c2ccc3[nH]cnc3c2)C1c1cccc(F)c1F)c1ccccc1 (stereo not drawn) [Compound 466, 1-(1H-benzo[d]imidazol-5-yl)-4-benzoyl-5-(2,3-difluorophenyl)-3-hydroxy-1H-pyrrol-2(5H)-one]
– | 52.6 | – | 11.6 | CC1=C(O)C(=O)N(c2ccc3nc[nH]c3c2)C1c1cccc(F)c1F (stereo not drawn) [Compound 467, 1-(1H-benzo[d]imidazol-6-yl)-5-(2,3-difluorophenyl)-3-hydroxy-4-methyl-1H-pyrrol-2(5H)-one]
– | 470 | – | 55.8 | CC1=C(O)C(=O)N(c2ccc3nc[nH]c3c2)C1c1c(F)ccc(F)c1Cl (stereo not drawn) [Compound 472, 1-(1H-benzo[d]imidazol-6-yl)-5-(2-chloro-3,6-difluorophenyl)-3-hydroxy-4-methyl-1H-pyrrol-2(5H)-one]
– | 259 | – | 29.2 | CC1=C(O)C(=O)N(c2ccc3nc[nH]c3c2)C1c1c(F)cccc1F (stereo not drawn) [Compound 473, 1-(1H-benzo[d]imidazol-6-yl)-5-(2,6-difluorophenyl)-3-hydroxy-4-methyl-1H-pyrrol-2(5H)-one]
